Measurements: PMC6446301, “Evaluation of therapeutic effects of FAK inhibition in murine models of atherosclerosis” (BMC Research Notes, 2019)

Key:
[1] = Clinical biochemistry markers in serum, intervention trial apoE KO mice; assay type: in vivo, mouse; settings: Intervention (6 + 6 weeks), mean ± SEM
Source text: (§1) To assess the therapeutic effect of FAK inhibition, the following three different designs were applied: prevention (1) and therapeutic intervention (2) in apoE KO mice, and therapeutic intervention (3) in LDLr KO mice. The prevention trial consisted of 8-week concurrent treatment with the HF/HC diet following 1 week of pre-loading of the HF/HC diet (Additional file 3: Figure S2A). The therapeutic intervention trial consisted of 6- and 8-week treatment after 6- and 8-week pre-loading of the HF/HC diet in apoE KO and LDLr KO mice, respectively (Additional file 3: Figure S2B). Body weight and food intake were measured once weekly. The mice were euthanized under terminal inhalation anesthesia with isoflurane followed by blood collection from abdominal vein.
(§2) Atherosclerotic lesion area was evaluated in the aorta by en face analysis (Additional file 4: Figure S3A) and in aortic root by cross-sectional analysis (Additional file 4: Figure S3B). The aorta was subjected to Sudan IV staining, and total area of the plaque lesion (TAOL) and area of whole aorta from arch without the region of brachiocephalic artery to common iliac artery (AOWA) were measured using the Definiens imaging software. Area of lesion (%) was calculated by the following formula; Area of lesion (%) = TAOL/AOWA × 100. After en face analysis, the aorta was washed and then blotted dry, weighed, minced, and total lipid was extracted with chloroform/methanol. Total and free cholesterol levels in the aortic extracts were determined with an enzymatic colorimetric assay (Wako Pure Chemical Industries Ltd.). Cross sections were cut at 5 μm thickness and 6 serial sections were collected every 50 μm along the aortic root. Lesion area analysis was made on the cross sections subjected to hematoxylin and eosin (HE) staining. Three representative sections derived from 3 segments were quantified per mouse. Lesion area values from the 3 sections were summed up. Histological features using serial cross sections were subjected to staining for EvG and anti Mac-3 antigen. Clinical biochemistry markers in serum was evaluated using DRICHEM 7000 (FUJIFILM Medical, Japan). Statistical comparison of control and compound 12-treated groups was carried out with a Mann–Whitney test (two-tailed) using GraphPad Prism.
(§3) Data are mean ± SEM. *; P < 0.05, **; P < 0.01 ***; P < 0.001 as compared with the control.

[2] = system: apoE KO mice; test: Atherosclerosis prevention trial in apoE KO mice; assay type: in vivo, mouse
Experimental: (§4) The mutant male mice, apoE KO (B6.129P2-Apoe^tm1Unc/J) and LDLr KO (B6.129S7-Ldlr^tm1Her/J) at the age of 7 weeks, were purchased from Charles River Laboratories, and acclimated to the facility for 7 days. The mice were housed at 25 °C with a 12:12 h light–dark cycle, and food and water were provided ad libitum. The HF/HC diet D12108 containing 1.25% cholesterol and 20% fat was purchased from Research Diets. A selective small molecule FAK inhibitor Compound 12 (Additional file 1: Figure S1; a 2-phenylamino-pyrimidin-4-ylamino-2,3-dihydro-isoindol-1-one derivative) was administrated as food admixture at a concentration of 0.03%. Compound 12 has an IC50 of 6 nM on FAK and no activity on insulin receptor kinase, insulin-like growth factor 1 receptor kinase, cyclin-dependent kinase 1 and Src (Additional file 2: Table S1) as described by Kawahara et al.).
as §1, §2

[3] = Clinical biochemistry markers in serum, prevention trial apoE KO mice; assay type: in vivo, mouse; settings: Prevention (8 weeks), mean ± SEM
Source text: as §1, §2, §3

[4] = system: FAK; settings: cited from earlier work
[5] = system: CDK1 (cyclin-dependent kinase 1); settings: cited from earlier work
[6] = system: c-Src; settings: cited from earlier work
[7] = system: IRK (insulin receptor kinase); settings: cited from earlier work
[8] = system: IGF-1R (insulin-like growth factor 1 receptor kinase); settings: cited from earlier work
[9] = system: LDLr KO mice; test: Atherosclerosis therapeutic intervention trial in LDLr KO mice; assay type: in vivo, mouse; settings: 0.03% food admixture
Experimental: as §4, §1, §2

[10] = system: apoE KO mice; test: Atherosclerosis therapeutic intervention trial in apoE KO mice; assay type: in vivo, mouse
Experimental: as §4, §1, §2

[11] = Clinical biochemistry markers in serum, intervention trial LDLr KO mice; assay type: in vivo, mouse; settings: Intervention (8 + 8 weeks), mean ± SEM
Source text: as §1, §2, §3

[12] = means, radiolabeled ATP, DELFIA or TR-FRET method
[13] = therapeutic intervention, 0.03% food admixture

COc1ccc(Nc2ncc(Cl)c(Nc3ccc(N4CCC(N5CCN(C)CC5)CC4)c4c3C(=O)N(C)C4)n2)c(OC)c1 [Compound 12, 7-[5-Chloro-2-(2,4-dimethoxy-phenylamino)-pyrimidin-4-ylamino]-2-methyl-4-[4-(4-methyl-piperazin-1-yl)-piperidin-1-yl]-2,3-dihydro-isoindol-1-one]
ALB [1]: 2.3 ± 0.04 g/dL
ALP [1]: 469 ± 37^*** U/L
ALT [1]: 26 ± 1.3 U/L
AST [1]: 108 ± 7.0 U/L
BUN [1]: 42 ± 2.5 mg/dL
CPK [1]: 227 ± 48 U/L
CRE [1]: 0.3 ± 0.02^*** mg/dL
LDH [1]: 590 ± 36^* U/L
T-BIL [1]: 0.5 ± 0.05 mg/dL
T-Chol [1]: 1,016 ± 53^* mg/dL
TG [1]: 93 ± 6.7^** mg/dL
body weight change ([2]; 0.03% food admixture): no remarkable changes
food intake ([2]; 0.03% food admixture): no remarkable changes
tolerability ([2]; 0.03% food admixture): generally well tolerated
histological features of atherosclerotic plaques (HE, EvG, anti Mac-3) ([2]; 8 weeks, 0.03% food admixture): foam cell rich, reduced fibrous and lipid core regions
reduction of lesion area of the aorta (en face analysis) vs control ([2]; 8 weeks, 0.03% food admixture with HF/HC diet): 41.2%
cholesterol content in aorta ([2]; 8 weeks, 0.03% food admixture, P < 0.01 vs control): significantly reduced
lesion area of aortic root (cross-sectional analysis) ([2]; 8 weeks, 0.03% food admixture, P < 0.05 vs control): significantly reduced
lesion area of the aorta (en face analysis, TAOL/AOWA x 100) ([2]; 8 weeks, 0.03% food admixture, control 8.92%): 5.24%
ALB [3]: 2.2 ± 0.07^* g/dL
ALP [3]: 554 ± 31^** U/L
ALT [3]: 25 ± 1.6 U/L
AST [3]: 115 ± 15 U/L
BUN [3]: 41 ± 2.5 mg/dL
CPK [3]: 700 ± 362 U/L
CRE [3]: 0.3 ± 0.02^*** mg/dL
Glc [3]: 167 ± 16 mg/dL
Insulin [3]: 751 ± 109 pg/mL
LDH [3]: 535 ± 47^** U/L
T-BIL [3]: 0.5 ± 0.03 mg/dL
T-Chol [3]: 1,221 ± 102^* mg/dL
TG [3]: 94 ± 8.4^* mg/dL
IC50 [4]: 0.006 µM
activity on cyclin-dependent kinase 1 [5]: no activity
IC50 [5, 12]: > 10 µM
activity on Src [6]: no activity
IC50 [6, 12]: > 10 µM
activity on insulin receptor kinase [7]: no activity
IC50 [7, 12]: > 3.3 µM
activity on insulin-like growth factor 1 receptor kinase [8]: no activity
IC50 [8, 12]: > 10 µM
cholesterol content in aorta ([9]; intervention 8 + 8 weeks, P < 0.01 vs control): significantly reduced
lesion area of the aorta (en face analysis) ([9]; intervention 8 + 8 weeks, normalized to Control at 8 weeks, control at 16 weeks 8.51%): 5.83%
body weight change ([9]; therapeutic intervention): no remarkable changes
food intake ([9]; therapeutic intervention): no remarkable changes
tolerability ([9]; therapeutic intervention): generally well tolerated
lesion area of aortic root (cross-sectional analysis) ([10]; intervention 6 + 6 weeks, 0.03% food admixture): appeared to be reduced
cholesterol content in aorta ([10]; intervention 6 + 6 weeks, 0.03% food admixture, P < 0.05 vs control): significantly reduced
lesion area of the aorta (en face analysis) ([10]; intervention 6 + 6 weeks, 0.03% food admixture, normalized to Control at 6 weeks, control at 12 weeks 8.03%): 4.75%
change of lesion area (mm^2) of aortic root vs control ([10]; intervention 6 + 6 weeks, 0.03% food admixture, printed in Fig. 2e): -15%
reduction of lesion area of the aorta (en face analysis) vs control ([10]; intervention, 6 + 6 weeks, 0.03% food admixture with HF/HC diet): 40.9%
body weight change [10, 13]: no remarkable changes
food intake [10, 13]: no remarkable changes
tolerability [10, 13]: generally well tolerated
ALB [11]: 2.2 ± 0.05 g/dL
ALP [11]: 406 ± 34^** U/L
ALT [11]: 24 ± 1.6^** U/L
AST [11]: 97 ± 8.0 U/L
BUN [11]: 32 ± 1.2 mg/dL
CPK [11]: 196 ± 76^** U/L
CRE [11]: 0.3 ± 0.02^*** mg/dL
LDH [11]: 295 ± 38 U/L
T-BIL [11]: 0.6 ± 0.05 mg/dL
T-Chol [11]: 714 ± 51^*** mg/dL
TG [11]: 273 ± 21 mg/dL
